Counter-ions that a name gives are not always drawn.
Tests used:
human OX1 receptor = target: T1, human OX1 receptor (Homo sapiens, UniProt O43613); assay: Measurement of orexin receptor antagonistic activity (calcium fluorescence, FLIPRtetra); format: cell-based; details: CHO, 10 μM test compound; CHO cells expressing human OX1 receptor; OX-A 1 nM; read-out: Human Orexin1 receptor inhibition (at 10 μM)
T1 construct: expressed in transfected cells; host or cells: CHO cells
T1 sequence (O43613 1-425): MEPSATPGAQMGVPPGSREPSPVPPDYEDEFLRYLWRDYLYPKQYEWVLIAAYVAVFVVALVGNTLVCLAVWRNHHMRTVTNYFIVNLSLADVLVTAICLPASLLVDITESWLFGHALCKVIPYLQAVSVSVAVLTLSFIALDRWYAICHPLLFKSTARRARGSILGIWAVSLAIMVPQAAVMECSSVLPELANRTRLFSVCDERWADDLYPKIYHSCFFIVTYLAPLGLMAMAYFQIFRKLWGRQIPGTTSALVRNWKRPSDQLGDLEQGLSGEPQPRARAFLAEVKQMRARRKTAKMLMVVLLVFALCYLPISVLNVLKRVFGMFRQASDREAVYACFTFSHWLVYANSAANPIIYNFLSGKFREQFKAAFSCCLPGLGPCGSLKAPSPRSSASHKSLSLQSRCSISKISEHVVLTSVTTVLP
In short: (§1)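 Calcium fluorescence measured by FLIPRtetra every second for 2 min after orexin-A challenge, 1 nM final for OX1 and 0.3 nM final for OX2. Receptor-expressing CHO cells received compound in HEPES-buffered HBSS with 0.1% BSA just before agonist.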

human OX2 receptor = target: T2, human OX2 receptor (Homo sapiens, UniProt O43614); assay: as above; format: cell-based; details: CHO, 10 μM test compound; CHO cells expressing human OX2 receptor; OX-A 0.3 nM; read-out: Human Orexin2 receptor inhibition (at 10 μM)
T2 construct: expressed in transfected cells; host or cells: CHO cells
T2 sequence (O43614 1-444): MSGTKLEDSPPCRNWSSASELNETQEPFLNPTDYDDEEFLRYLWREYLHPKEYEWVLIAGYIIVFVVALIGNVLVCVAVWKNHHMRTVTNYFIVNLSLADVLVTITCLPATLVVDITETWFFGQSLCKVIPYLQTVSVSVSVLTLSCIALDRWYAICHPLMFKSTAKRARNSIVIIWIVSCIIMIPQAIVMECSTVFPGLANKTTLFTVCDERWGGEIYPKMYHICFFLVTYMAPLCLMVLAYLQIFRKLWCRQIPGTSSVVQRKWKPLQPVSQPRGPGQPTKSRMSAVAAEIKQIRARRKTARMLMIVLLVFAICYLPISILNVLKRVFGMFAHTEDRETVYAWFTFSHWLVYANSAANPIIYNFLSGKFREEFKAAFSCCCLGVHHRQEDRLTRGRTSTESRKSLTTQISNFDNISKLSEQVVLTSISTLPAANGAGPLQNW
In short: as §1

| inhibition at 10 µM (human OX1 receptor) | inhibition at 10 µM (human OX2 receptor) | SMILES |
| --- | --- | --- |
| 101% | 99% | Cc1cc(N2CCN(C(=O)c3cc(Cl)ccc3-c3nccs3)C[C@H](C)O2)nc(C)n1 [Example 88, (5-chloro-2-(1,3-thiazol-2-yl)phenyl)((7S)-2-(2,6-dimethylpyrimidin-4-yl)-7-methyl-1,2,5-oxadiazepan-5-yl)methanone hydrochloride] |
| 101% | 97% | Cc1cccc(N2CCN(C(=O)c3ccccc3-c3nccs3)C[C@H](C)O2)n1 [Example 89, ((7S)-7-methyl-2-(6-methylpyridin-2-yl)-1,2,5-oxadiazepan-5-yl) (2-(1,3-thiazol-2-yl)phenyl)methanone] |
| 101% | 96% | C[C@H]1CN(C(=O)c2ccccc2-c2nccs2)CCN(c2ccc(Cl)cn2)O1 [Example 90, ((7S)-2-(5-chloropyridin-2-yl)-7-methyl-1,2,5-oxadiazepan-5-yl)(2-(1,3-thiazol-2-yl)phenyl)methanone] |
| 100% | 100% | Cc1cc(C)nc(N2CCN(C(=O)c3ccccc3-c3nccs3)C[C@H](C)O2)c1 [Example 91, ((7S)-2-(4,6-dimethylpyridin-2-yl)-7-methyl-1,2,5-oxadiazepan-5-yl)(2-(1,3-thiazol-2-yl)phenyl)methanone] |
| 73% | 101% | Cc1nc(N2CCN(C(=O)c3ccccc3-n3nccn3)C[C@H](C)O2)cc(C(F)(F)F)n1 [Example 92, ((7S)-7-methyl-2-(2-methyl-6-(trifluoromethyl)pyrimidin-4-yl)-1,2,5-oxadiazepan-5-yl)(2-(2H-1,2,3-triazol-2-yl)phenyl)methanone] |
| 72% | 100% | Cc1nc(C(F)F)cc(N2CCN(C(=O)c3ccccc3-n3nccn3)C[C@H](C)O2)n1 [Example 93, ((7S)-2-(6-(difluoromethyl)-2-methylpyrimidin-4-yl)-7-methyl-1,2,5-oxadiazepan-5-yl) (2-(2H-1,2,3-triazol-2-yl)phenyl)methanone] |
| 106% | 104% | Cc1cc(N2CCN(C(=O)c3ccccc3-n3nccn3)C[C@H](C)O2)nc(C(F)(F)F)n1 [Example 94, ((7S)-7-methyl-2-(6-methyl-2-(trifluoromethyl)pyrimidin-4-yl)-1,2,5-oxadiazepan-5-yl) (2-(2H-1,2,3-triazol-2-yl)phenyl)methanone] |
| 100% | 97% | C[C@H]1CN(C(=O)c2ccccc2-n2nccn2)CCN(c2cc(C(F)F)nc(C3CC3)n2)O1 [Example 95, ((7S)-2-(2-cyclopropyl-6-(difluoromethyl)pyrimidin-4-yl)-7-methyl-1,2,5-oxadiazepan-5-yl) (2-(2H-1,2,3-triazol-2-yl)phenyl)methanone] |
| 98% | 98% | C[C@H]1CN(C(=O)c2ccccc2-n2nccn2)CCN(c2cc(C3CC3)nc(C3CC3)n2)O1 [Example 96, ((7S)-2-(2,6-dicyclopropylpyrimidin-4-yl)-7-methyl-1,2,5-oxadiazepan-5-yl) (2-(2H-1,2,3-triazol-2-yl)phenyl)methanone] |
| 95% | 100% | C[C@H]1CN(C(=O)c2ccccc2-n2nccn2)CCN(c2cc(C(F)(F)F)nc(C3CC3)n2)O1 [Example 97, ((7S)-2-(2-cyclopropyl-6-(trifluoromethyl)pyrimidin-4-yl)-7-methyl-1,2,5-oxadiazepan-5-yl) (2-(2H-1,2,3-triazol-2-yl)phenyl)methanone] |
| 97% | 104% | C[C@H]1CN(C(=O)c2ccccc2-n2nccn2)CCN(c2ccc(Cl)cn2)O1 [Example 98, ((7S)-2-(5-chloropyridin-2-yl)-7-methyl-1,2,5-oxadiazepan-5-yl) (2-(2H-1,2,3-triazol-2-yl)phenyl)methanone] |
| 87% | 98% | C[C@H]1CN(C(=O)c2ccccc2-n2nccn2)CCN(c2ccn3nccc3n2)O1 [Example 99, ((7S)-7-methyl-2-(pyrazolo[1,5-a]pyrimidin-5-yl)-1,2,5-oxadiazepan-5-yl)(2-(2H-1,2,3-triazol-2-yl)phenyl)methanone] |
| 42% | 102% | Cc1nc(C(F)F)cc(N2CCN(C(=O)c3cc(F)ccc3-n3nccn3)C[C@H](C)O2)n1 [Example 100, ((7S)-2-(6-(difluoromethyl)-2-methylpyrimidin-4-yl)-7-methyl-1,2,5-oxadiazepan-5-yl)(5-fluoro-2-(2H-1,2,3-triazol-2-yl)phenyl)methanone] |
| 50% | 101% | Cc1nc(N2CCN(C(=O)c3cc(F)ccc3-n3nccn3)C[C@H](C)O2)cc(C(F)(F)F)n1 [Example 101, (5-fluoro-2-(2H-1,2,3-triazol-2-yl)phenyl)((7S)-7-methyl-2-(2-methyl-6-(trifluoromethyl)pyrimidin-4-yl)-1,2,5-oxadiazepan-5-yl)methanone] |
| 90% | 100% | Cc1nc(C(F)F)cc(N2CCN(C(=O)c3cc(Cl)ccc3-n3nccn3)C[C@H](C)O2)n1 [Example 103, (5-chloro-2-(2H-1,2,3-triazol-2-yl)phenyl)((7S)-2-(6-(difluoromethyl)-2-methylpyrimidin-4-yl)-7-methyl-1,2,5-oxadiazepan-5-yl)methanone] |
| 104% | 96% | Cc1cc(N2CCN(C(=O)c3cc(Cl)ccc3-n3nccn3)C[C@H](C)O2)nc(C(F)(F)F)n1 [Example 104, (5-chloro-2-(2H-1,2,3-triazol-2-yl)phenyl)((7S)-7-methyl-2-(6-methyl-2-(trifluoromethyl)pyrimidin-4-yl)-1,2,5-oxadiazepan-5-yl)methanone] |
| 96% | 98% | C[C@H]1CN(C(=O)c2cc(Cl)ccc2-n2nccn2)CCN(c2cc(C(F)F)nc(C3CC3)n2)O1 [Example 105, (5-chloro-2-(2H-1,2,3-triazol-2-yl)phenyl)((7S)-2-(2-cyclopropyl-6-(difluoromethyl)pyrimidin-4-yl)-7-methyl-1,2,5-oxadiazepan-5-yl)methanone] |
| 38% | 99% | Cc1cc(N2CCN(C(=O)c3cc(F)c(F)cc3-n3nccn3)C[C@H](C)O2)nc(C)n1 [Example 106, (4,5-difluoro-2-(2H-1,2,3-triazol-2-yl)phenyl)((7S)-2-(2,6-dimethylpyrimidin-4-yl)-7-methyl-1,2,5-oxadiazepan-5-yl)methanone] |
| 37% | 94% | Cc1nc(N2CCN(C(=O)c3cc(F)c(F)cc3-n3nccn3)C[C@H](C)O2)cc(C(F)(F)F)n1 [Example 107, (4,5-difluoro-2-(2H-1,2,3-triazol-2-yl)phenyl)((7S)-7-methyl-2-(2-methyl-6-(trifluoromethyl)pyrimidin-4-yl)-1,2,5-oxadiazepan-5-yl)methanone] |
| 100% | 101% | Cc1cc(N2CCN(C(=O)c3cc(F)c(F)cc3-n3nccn3)C[C@H](C)O2)nc(C(F)(F)F)n1 [Example 108, (4,5-difluoro-2-(2H-1,2,3-triazol-2-yl)phenyl)((7S)-7-methyl-2-(6-methyl-2-(trifluoromethyl)pyrimidin-4-yl)-1,2,5-oxadiazepan-5-yl)methanone] |
| 85% | 101% | Cc1cc(N2CCN(C(=O)c3ccccc3-c3ncccn3)C[C@H](C)O2)nc(C)n1 [Example 109, ((7S)-2-(2,6-dimethylpyrimidin-4-yl)-7-methyl-1,2,5-oxadiazepan-5-yl)(2-(pyrimidin-2-yl)phenyl)methanone] |
| 79% | 95% | Cc1cc(N2CCN(C(=O)c3ccccc3-c3nc(C)cs3)C[C@H](C)O2)nc(C)n1 [Example 110, ((7S)-2-(2,6-dimethylpyrimidin-4-yl)-7-methyl-1,2,5-oxadiazepan-5-yl)(2-(4-methyl-1,3-thiazol-2-yl)phenyl)methanone] |
| 9% | 100% | Cc1nc(N2CCN(C(=O)c3ccccc3-c3nc(C)no3)C[C@H](C)O2)cc(C(F)(F)F)n1 [Example 111, ((7S)-7-methyl-2-(2-methyl-6-(trifluoromethyl)pyrimidin-4-yl)-1,2,5-oxadiazepan-5-yl)(2-(3-methyl-1,2,4-oxadiazol-5-yl)phenyl)methanone] |
